Measurements from ChEMBL document CHEMBL5126592, “Design, synthesis and activity against drug-resistant bacteria evaluation of C-20, C-23 modified 5-O-mycaminosyltylonolide derivatives” (Eur J Med Chem, 2022).
Converted amounts (≈) assume the structure as drawn. The source made the active and inactive calls. The rule behind the calls is not given here.

What was measured:
[1] = Genotoxicity in Salmonella typhimurium TA98 assessed as number of revertants at 1.6x10^-6 mg/plate incubated for 72 hrs in absence of liver S9 fraction by Ames test (reference value: 57.33 +/- 3.06); format: toxicity; settings: salmonella enterica subsp. enterica serovar typhimurium, s9, 72 h
[2] = Toxicity in Kunming mouse infected with Staphylococcus aureus ATCC 25923 assessed as normal alveolar wall thickness at 20 to 40 mg/kg, iv measured after 1 hr by hematoxylin and eosin staining based microscopic analysis; format: organism-based; settings: in vivo, dose 20-40 mg/kg
[3] = Toxicity in Kunming mouse infected with Staphylococcus aureus ATCC 25923 assessed as reduction in neutrophils at 20 to 40 mg/kg, iv measured after 1 hr by hematoxylin and eosin staining based microscopic analysis; format: organism-based; settings: in vivo, dose 20-40 mg/kg
[4] = Toxicity in Kunming mouse infected with Staphylococcus aureus ATCC 25923 assessed as intact lung tissue structure at 20 to 40 mg/kg, iv measured after 1 hr by hematoxylin and eosin staining based microscopic analysis; format: organism-based; settings: in vivo, dose 20-40 mg/kg
[5] = test system: Staphylococcus aureus; experiment: Antibacterial activity against Staphylococcus aureus ATCC 25923 infected in kunming mouse assessed as reduction in lung congestion at 20 to 40 mg/kg, iv measured after 1 hr by hematoxylin and eosin staining based microscopic analysis; format: functional, organism-based; settings: dose 20-40 mg/kg
[6] = Toxicity in Kunming mouse infected with Staphylococcus aureus ATCC 25923 assessed as appearance of pink and spongy lungs at 20 to 40 mg/kg, iv measured after 1 hr by hematoxylin and eosin staining based microscopic analysis; format: organism-based; settings: in vivo, dose 20-40 mg/kg
[7] = test system: Staphylococcus aureus; experiment: Antibacterial activity against Staphylococcus aureus ATCC 29213 incubated for 16 to 20 hrs using 10^6 CFU/ml bacterial inoculum by broth microdilution method; format: functional; settings: time 16-20 hrs
[8] = test system: Staphylococcus aureus; experiment: Antibacterial activity against Staphylococcus aureus ATCC 29213 incubated for 16 to 20 hrs using 10^4 CFU/ml bacterial inoculum by broth microdilution method; format: functional; settings: time 16-20 hrs
[9] = test system: Escherichia coli; experiment: Antibacterial activity against Escherichia coli ATCC 25922 incubated for 16 to 20 hrs using 10^6 CFU/ml bacterial inoculum by broth microdilution method; format: functional; settings: time 16-20 hrs
[10] = test system: Escherichia coli; experiment: Antibacterial activity against Escherichia coli ATCC 25922 at pH 6.6 incubated for 16 to 20 hrs by broth microdilution method; format: functional; settings: time 16-20 hrs
[11] = test system: Escherichia coli; experiment: Antibacterial activity against Escherichia coli ATCC 25922 at pH 7.2 incubated for 16 to 20 hrs by broth microdilution method; format: functional; settings: time 16-20 hrs
[12] = test system: Escherichia coli; experiment: Antibacterial activity against Escherichia coli ATCC 25922 incubated for 16 to 20 hrs by broth microdilution method; format: functional; settings: time 16-20 hrs
[13] = test system: Staphylococcus chromogenes; experiment: Antibacterial activity against Staphylococcus chromogenes incubated for 16 to 20 hrs by broth microdilution method; format: functional; settings: time 16-20 hrs
[14] = test system: Pseudomonas aeruginosa; experiment: Antibacterial activity against Pseudomonas aeruginosa LTP-3 incubated for 16 to 20 hrs by broth microdilution method; format: functional; settings: time 16-20 hrs
[15] = test system: Staphylococcus aureus; experiment: Bactericidal activity against Staphylococcus aureus ATCC 29213 incubated for 20 to 24 hrs by CLSI based analysis; format: functional; settings: time 20-24 hrs
[16] = test system: Staphylococcus aureus; experiment: Antibacterial activity against Staphylococcus aureus ATCC 29213 incubated for 16 to 20 hrs by broth microdilution method; format: functional; settings: time 16-20 hrs
[17] = test system: Staphylococcus aureus; experiment: Ratio of MBC to MIC for Staphylococcus aureus ATCC 29213; format: functional
[18] = test system: Escherichia coli; experiment: Antibacterial activity against Escherichia coli ATCC 25922 at pH 8 incubated for 16 to 20 hrs by broth microdilution method; format: functional; settings: time 16-20 hrs
[19] = test system: Escherichia coli; experiment: Antibacterial activity against Escherichia coli ATCC 25922 at pH 8.4 incubated for 16 to 20 hrs by broth microdilution method; format: functional; settings: time 16-20 hrs
[20] = test system: Staphylococcus aureus; experiment: Antibacterial activity against Staphylococcus aureus ATCC 29213 at pH 6.6 incubated for 16 to 20 hrs by broth microdilution method; format: functional; settings: time 16-20 hrs
[21] = test system: Staphylococcus aureus; experiment: Antibacterial activity against Staphylococcus aureus ATCC 29213 at pH 7.2 incubated for 16 to 20 hrs by broth microdilution method; format: functional; settings: time 16-20 hrs
[22] = test system: Staphylococcus aureus; experiment: Antibacterial activity against Staphylococcus aureus ATCC 29213 at pH 7.4 incubated for 16 to 20 hrs by broth microdilution method; format: functional; settings: time 16-20 hrs
[23] = test system: Staphylococcus aureus; experiment: Antibacterial activity against Staphylococcus aureus ATCC 29213 at pH 7.8 incubated for 16 to 20 hrs by broth microdilution method; format: functional; settings: time 16-20 hrs
[24] = test system: Staphylococcus aureus; experiment: Antibacterial activity against Staphylococcus aureus ATCC 29213 at pH 8.4 incubated for 16 to 20 hrs by broth microdilution method; format: functional; settings: time 16-20 hrs
[25] = test system: Escherichia coli; experiment: Antibacterial activity against Escherichia coli ATCC 25922 incubated for 16 to 20 hrs in presence of 5% foetal bovine serum by broth microdilution method; format: functional; settings: time 16-20 hrs
[26] = test system: Escherichia coli; experiment: Antibacterial activity against Escherichia coli ATCC 25922 incubated for 16 to 20 hrs in presence of 50% foetal bovine serum by broth microdilution method; format: functional; settings: time 16-20 hrs
[27] = Genotoxicity in Salmonella typhimurium TA100 assessed as number of revertants at 1x10^-3 mg/plate incubated for 72 hrs in absence of liver S9 fraction by Ames test (reference value: 221.67 +/- 15.57); format: toxicity; settings: salmonella enterica subsp. enterica serovar typhimurium, s9, 72 h
[28] = Genotoxicity in Salmonella typhimurium TA100 assessed as number of revertants at 4x10^-5 mg/plate incubated for 72 hrs in absence of liver S9 fraction by Ames test (reference value: 221.67 +/- 15.57); format: toxicity; settings: salmonella enterica subsp. enterica serovar typhimurium, s9, 72 h
[29] = Genotoxicity in Salmonella typhimurium TA102 assessed as number of revertants at 2x10^-4 mg/plate incubated for 72 hrs in absence of liver S9 fraction by Ames test (reference value: 386.67 +/- 23.44); format: toxicity; settings: salmonella enterica subsp. enterica serovar typhimurium, s9, 72 h
[30] = Genotoxicity in Salmonella typhimurium TA102 assessed as number of revertants at 8x10^-6 mg/plate incubated for 72 hrs in absence of liver S9 fraction by Ames test (reference value: 386.67 +/- 23.44); format: toxicity; settings: salmonella enterica subsp. enterica serovar typhimurium, s9, 72 h
[31] = Genotoxicity in Salmonella typhimurium TA102 assessed as number of revertants at 8x10^-6 mg/plate incubated for 72 hrs in presence of liver S9 fraction by Ames test (reference value: 465.33 +/- 18.04); format: toxicity, subcellular; settings: salmonella enterica subsp. enterica serovar typhimurium, s9, 72 h
[32] = Genotoxicity in Salmonella typhimurium TA1535 assessed as number of revertants at 8x10^-6 mg/plate incubated for 72 hrs in absence of liver S9 fraction by Ames test (reference value: 14.33 +/- 0.58); format: toxicity; settings: salmonella enterica subsp. enterica serovar typhimurium, s9, 72 h
[33] = Genotoxicity in Salmonella typhimurium TA1535 assessed as number of revertants at 1x10^-3 mg/plate incubated for 72 hrs in presence of liver S9 fraction by Ames test (reference value: 15.33 +/- 2.52); format: toxicity, subcellular; settings: salmonella enterica subsp. enterica serovar typhimurium, s9, 72 h
[34] = Genotoxicity in Salmonella typhimurium TA1537 assessed as number of revertants at 8x10^-6 mg/plate incubated for 72 hrs in absence of liver S9 fraction by Ames test (reference value: 22.67 +/- 2.52); format: toxicity; settings: salmonella enterica subsp. enterica serovar typhimurium, s9, 72 h
[35] = Genotoxicity in Salmonella typhimurium TA1537 assessed as number of revertants at 1.6x10^-6 mg/plate incubated for 72 hrs in absence of liver S9 fraction by Ames test (reference value: 22.67 +/- 2.52); format: toxicity; settings: salmonella enterica subsp. enterica serovar typhimurium, s9, 72 h
[36] = Genotoxicity in Salmonella typhimurium TA1537 assessed as number of revertants at 8x10^-6 mg/plate incubated for 72 hrs in presence of liver S9 fraction by Ames test (reference value: 20 +/- 5); format: toxicity, subcellular; settings: salmonella enterica subsp. enterica serovar typhimurium, s9, 72 h

For `CC[C@H]1OC(=O)C[C@@H](O)[C@H](C)[C@@H](O[C@@H]2O[C@H](C)[C@@H](O)[C@H](N(C)C)[C@H]2O)[C@@H](CCN(C)Cc2cn(-c3cnc4ccccc4c3)nn2)C[C@@H](C)C(=O)/C=C/C(C)=C/[C@@H]1CN1CCCCCC1`, the Activity [1] was 64.33, the Activity [2] was “Non-Toxic” and the Activity [3] was “Non-Toxic”. For the same molecule, the Activity [4] was “Non-Toxic”, the Activity [5] was “Active” and the Activity [6] was “Non-Toxic”. For the same molecule, the MIC [7] was 0.25 µg/mL (≈ 0.277 µM), the MIC [8] was 0.125 µg/mL (≈ 0.139 µM) and the MIC [9] was 0.5 µg/mL (≈ 0.554 µM). It also gave an MIC [10] of 32 µg/mL (≈ 35.5 µM), an MIC [11] of 1 µg/mL (≈ 1.11 µM) and an MIC [12] of 1 µg/mL (≈ 1.11 µM). For the same molecule, the MIC [13] was 0.25 µg/mL (≈ 0.277 µM), the MIC [14] was 0.5 µg/mL (≈ 0.554 µM) and the MBC [15] was 0.25 µg/mL (≈ 0.277 µM). It also gave an MIC [16] of 0.125 µg/mL (≈ 0.139 µM), a Ratio [17] of 2 and an MIC [18] of 0.25 µg/mL (≈ 0.277 µM). For the same molecule, the MIC [19] was 0.25 µg/mL (≈ 0.277 µM), the MIC [20] was 32 µg/mL (≈ 35.5 µM) and the MIC [21] was 0.5 µg/mL (≈ 0.554 µM). For the same molecule, the MIC [22] was 0.25 µg/mL (≈ 0.277 µM), the MIC [23] was ≤ 0.0625 µg/mL and the MIC [24] was ≤ 0.0625 µg/mL. For the same molecule, the MIC [25] was 1 µg/mL, the MIC [26] was 4 µg/mL and the Activity [27] was 231. The Activity [28] was 201.67, the Activity [29] was 449.33 and the Activity [30] was 425.33. It also gave an Activity [31] of 466.67, an Activity [32] of 13 and an Activity [33] of 11. It also gave an Activity [34] of 21.33, an Activity [35] of 14.33 and an Activity [36] of 17.67.
